Data taken from US5736518A, “Peptide compounds of (L) amino acids and ring molecules, and therapeutical applications thereof” (Polifarma S.p.A., priority 1990, dated 1998).
Square brackets hold non-standard residues; d marks the D form. Peptide text beside a SMILES is read from it. * marks the point of attachment. Trp(1-Me) = Cn1cc(C[C@H](N)C(=O)O)c2ccccc21; Tic = O=C(O)[C@@H]1Cc2ccccc2CN1; pGlu = O=C1CC[CH](C(=O)O)N1; Hyp = O=C(O)[CH]1C[CH](O)CN1; Phg = N[CH](C(=O)O)c1ccccc1; ΔPro = O=C(O)[C@@H]1C=CCN1; Pip = O=C(O)[C@@H]1CCCCN1; αMeP = C[C]1(C(=O)O)CCCN1; Cbz = O=C(OCc1ccccc1)*; Aze = O=C(O)[CH]1CCN1; Boc = CC(C)(C)OC(=O)*

How the values were obtained:
[1] = system: spontaneously hyper-tensive rats (SHR from the company Charles River); test: pressure tests in spontaneously hypertensive rats, awake and free to move; type: in vivo
From the text: (§1) In the following examples will first of all be given the data necessary for synthesis of the compounds according to the present invention. There will then be given data regarding their pharmacological activity, using methods widely known to be valid. In particular, for the pressure tests, spontaneously hyper-tensive rats were used (SHR from the company Charles River), operated in such a way as to enable pressure to be read even when the animals were awake and free to move. In order to evaluate the analgesic activity, the Hot Plate and Writhing Tests were used. For the anti-inflammatory effect the test of carraginine edema was used. Finally, for immuno-modulating activity the evaluation of the stimulation of growth of human lymphocytes in culture was resorted to, after the addition of specific antigens.

[2] = system: human lymphocytes in culture; test: immuno-modulating activity: stimulation of growth of human lymphocytes in culture after addition of specific antigens; type: cell-based; conditions: for immune response / immuno-stimulating activity (in words): human lymphocytes in culture, antigen not stated
From the text: as §1, with “antigens. The results obtained for each synthesized compound are given at the end of each example.” for “antigens.”

[3] = Hot Plate test (analgesic activity); type: in vivo
From the text: as §1, with “antigens. The results obtained for each synthesized compound are given at the end of each example.” for “antigens.”

[4] = analgesic activity, test not given (Hot Plate and Writhing Tests were used); type: in vivo; conditions: test and dose not stated
From the text: as §1, with “antigens. The results obtained for each synthesized compound are given at the end of each example.” for “antigens.”

carraginine edema = test: anti-inflammatory effect, test of carraginine edema; type: in vivo; conditions: edema from carrageenin; dose not stated
From the text: as §1, with “antigens. The results obtained for each synthesized compound are given at the end of each example.” for “antigens.”

Row | Compound | anti-hypertensive effect (in words) ([1]; dose not stated) | immune response / immuno-stimulating activity (in words) [2] | anti-inflammatory effect (in words) (carraginine edema) | other results
1 | CCOC(=O)[C@@H]1Cc2c([nH]c3ccccc23)CN1C(=O)[C@H](C)NC(=O)[C@@H]1CCCN1C(=O)OCc1ccccc1 [compound 1, Z-(L)-Pro-(L)-Ala-(S)-CytOEt] |  |  |  | anti-hypertensive effect (in words) ([1]; 4 mg/Kg i.p.): good anti-hypertensive effect; duration of the anti-hypertensive effect ([1]; 4 mg/Kg i.p.): a number of hours; reduction of pressure values ([1]; 4 mg/Kg i.p.): 15-20%; response of lymphocytes stimulated by phytohemoagglutinine (PHA) (in words) ([2]; PHA stimulated lymphocytes): increases the response of lymphocytes; pain killing effect under the Hot Plate test (in words) ([3]; 4 mg/Kg i.p.): slight pain killing effect
2 | C[C@H](NC(=O)[C@@H]1CCCN1C(=O)OCc1ccccc1)C(=O)NCCc1c[nH]c2ccccc12 [compound 2, Z-(L)-Pro-(L)-Ala-TrpH] | comparable to that of compound 1 | increased, but to a lesser extent than in the previous compound |  | 
3 | C[C@H](NC(=O)[C@@H]1CCCN1C(=O)OCc1ccccc1)C(=O)N1CCc2c([nH]c3ccccc23)C1 [compound 3, Z-(L)-Pro-(L)-Ala-CytH] |  |  |  | anti-hypertensive effect (in words) ([1]; 8 mg/Kg i.p.): bland anti-hypertensive effect
4 | COC(=O)[C@H](Cc1ccc(OC)cc1)NC(=O)[C@H](C)NC(=O)[C@@H]1CCCN1C(=O)OCc1ccccc1 [compound 4, Z-(L)-Pro-(L)-Ala-(L)-OmtOMe] (Cbz-Pro-Ala-Tyr(Me)-OMe) |  | slightly increased |  | anti-hypertensive effect (in words) ([1]; 8 mg/Kg i.v.): bland anti-hypertensive effect
5 | COC(=O)[C@@H](NC(=O)[C@H](C)NC(=O)[C@@H]1CCCN1C(=O)OCc1ccccc1)c1ccccc1 [compound 5, Z-(L)-Pro-(L)-Ala-(L)-PhgOMe] (Cbz-Pro-Ala-[Phg]-OMe) |  |  |  | anti-hypertensive effect (in words) ([1]; 8 mg/Kg i.p.): bland anti-hypertensive effect; analgesic effect, Hot Plate test (in words) ([3]; dose not stated): moderate analgesic effect
6 | COC[C@H](Cc1ccccc1)NC(=O)[C@H](C)NC(=O)[C@@H]1CCCN1C(=O)OCc1ccccc1 [compound 6, Z-(L)-Pro-(L)-Ala-(L)-Pme] |  | more consistent | rather weak | anti-hypertensive effect (in words) ([1]; 2 mg/Kg i.v.): good anti-hypertensive activity; reduction of pressure after one hour ([1]; 2 mg/Kg i.v., after one hour): approximately 25%; analgesic effect (in words) [4]: good analgesic activity
7 | COC(=O)[C@H](Cc1cn(C)c2ccccc12)NC(=O)[C@H](C)NC(=O)[C@@H]1CCCN1C(=O)OCc1ccccc1 [compound 7, Z-(L)-Pro-(L)-Ala-(1)-Me-(L)-TrpOMe] (Cbz-Pro-Ala-[Trp(1-Me)]-OMe) |  |  |  | anti-hypertensive effect (in words) ([1]; 2 mg/Kg i.v.): good anti-hypertensive effect; reduction of pressure ([1]; 2 mg/Kg i.v.): 10%
8 | COC(=O)[C@H](Cc1c[nH]c2ccccc12)NC(=O)[C@H](CC(C)C)NC(=O)c1ccco1 [compound 8, 2-Fur-(L)-Leu-(L)-TrpOMe] |  | strongly stimulated even with small doses of peptide | slight antiinflammatory effect | anti-hypertensive effect (in words) ([1]; 4 mg/Kg i.v.): slight anti-hypertensive effect
9 | COC(=O)[C@H](Cc1c[nH]c2ccccc12)NC(=O)[C@H](CC(C)C)NC(=O)c1ccc[nH]1 [compound 9, 2-Pyrrolyl-(L)-Leu-(L)-TrpOMe] | slight effect on pressure |  | bland reduction of inflammatory responses | 
10 | COC(=O)C(Cc1c[nH]c2ccccc12)NC(=O)C(CC(C)C)NC(=O)C1CCCN1C.Cl (stereo not drawn) [compound 10, N-Me-(L)-Pro-(L)-Leu-(L)-TrpOMe.HCl] |  | slightly increased |  | anti-hypertensive effect (in words) ([1]; 2 mg/Kg i.v.): excellent anti-hypertensive effect; reduction of pressure ([1]; 2 mg/Kg i.v.): 15-20%; analgesic effect (in words) [4]: low analgesic effect
11 | COC(=O)[C@@H]1Cc2ccccc2CN1C(=O)[C@H](C)NC(=O)[C@@H]1CCCN1C(=O)OCc1ccccc1 [compound 11, Z-(L)-Pro-(L)-Ala(L)-CypOMe] (Cbz-Pro-Ala-[Tic]-OMe) | slight anti-hypertensive effect |  | moderate anti-inflammatory effect | 
12 | COC(=O)C(Cc1c[nH]c2ccccc12)NC(=O)C(CC(C)C)NC(=O)C1(C)CCCN1C(=O)OC(C)(C)C (stereo not drawn) [compound 12, Boc-(L)-Mep-(L)-Leu-(L)-TrpOMe] (Boc-[αMeP]-Leu-Trp-OMe; configuration not given here) | bland anti-hypertensive effect |  | reduction of the inflammatory response | 
13 | COC(=O)[C@H](Cc1c[nH]c2ccccc12)NC(=O)[C@H](CC(C)C)NC(=O)[C@@H]1C=CCN1C(=O)OC(C)(C)C [compound 13, Boc-.gradient.^3,4 -(L)-Pro-(L)-Leu-(L)-TrpOMe] (Boc-[ΔPro]-Leu-Trp-OMe) | slightly anti-hypertensive | slightly increases the immune response |  | 
14 | COC(=O)[C@H](Cc1c[nH]c2ccccc12)NC(=O)[C@H](CC(C)C)NC(=O)[C@@H]1Cc2ccccc2N1C(=O)OCc1ccccc1 [compound 14, Z-(S)-Dhi-(L)-Leu-(L)-TrpOMe] | bland reduction of pressure |  |  | analgesic effect (in words) [4]: moderate analgesic effect
15 | COC(=O)[C@H](Cc1c[nH]c2ccccc12)NC(=O)[C@H](CC(C)C)NC(=O)[C@@H]1CCCCN1C(=O)OCc1ccccc1 [compound 15, Z-(L)-Pip-(L)-Leu-(L)-TrPOMe] (Cbz-[Pip]-Leu-Trp-OMe) |  | slight increase in immune response | consistent | anti-hypertensive effect (in words) ([1]; 2 mg/Kg i.v.): good anti-hypertensive effect; reduction of pressure ([1]; 2 mg/Kg i.v.): up to 30%
16 | COC(=O)C(Cc1c[nH]c2ccccc12)NC(=O)C(CC(C)C)NC(=O)C1CC(O)CN1C(=O)OCc1ccccc1 (stereo not drawn) [compound 16, Z-(L)-Hyp-(L)-Leu-(L)-TrpOMe] (Cbz-[Hyp]-Leu-Trp-OMe; configuration not given here) | bland anti-hypertensive action |  |  | analgesic effect (in words) [4]: modest analgesic effect
17 | COC(=O)C(Cc1c[nH]c2ccccc12)NC(=O)C(CC(C)C)NC(=O)C1CCN1C(=O)OCc1ccccc1 [compound 17, Z-(S)-Aze-(L)-Leu-(L)-TrpOMe] (Cbz-[Aze]-Leu-Trp-OMe; configuration not given here) | slight anti-hypertensive effect |  | bland anti-inflammatory activity | 
18 | COC(=O)[C@H](Cc1c[nH]c2ccccc12)NC(=O)[C@H](CC(C)C)NC(=O)[C@@H]1CCCO1 [compound 18, (S)-Tfc-(L)-Leu-(L)-TrpOMe] | bland anti-hypertensive effect | stimulates the immune response in a moderate manner |  | 
19 | COC(=O)[C@H](Cc1c[nH]c2ccccc12)NC(=O)[C@H](CC(C)C)NC(=O)[C@@H]1CCC(=O)N1C(=O)OCc1ccccc1 [compound 19, Z-(L)-Pyr-(L)-Leu-(L)-TrpOMe] | slight anti-hypertensive effect |  | fair anti-inflammatory activity | 
20 | COC(=O)[C@@H]1Cc2c([nH]c3ccccc23)CN1C(=O)[C@H](CC(C)C)NC(=O)[C@@H]1CCC(=O)N1C(=O)OCc1ccccc1 [compound 20, Z-(L)-Pyr-(L)-Leu-(S)-CytOMe] | bland anti-hypertensive activity |  | fair anti-inflammatory activity | 
21 | COC(=O)[C@@H]1Cc2ccccc2CN1C(=O)[C@H](CC(C)C)NC(=O)[C@@H]1CCC(=O)N1C(=O)OCc1ccccc1 [compound 21, Z-(L)-Pyr-(L)-Leu-(S)-CyPOMe] | slight anti-hypertensive activity | good immuno-stimulating activity |  | 
22 | COC(=O)C(NC(=O)CNC(=O)C1CCC(=O)N1)c1ccccc1 (stereo not drawn) [compound 22, (L)-Pyr-Gly-(L)-PhgOMe] ([pGlu]-Gly-[Phg]-OMe; configuration not given here) |  | appears to increase the immune response | very good | anti-hypertensive effect (in words) ([1]; 4 mg/Kg i.p.): excellent anti-hypertensive activity; reduction of pressure values ([1]; 4 mg/Kg i.p.): 20%
23 | COC[C@H](Cc1ccccc1)NC(=O)CNC(=O)[C@@H]1CCC(=O)N1 [compound 23, (L)-Pyr-Gly-(L)-Pme] |  | good immuno-stimulating effect |  | anti-hypertensive effect (in words) ([1]; 8 mg/Kg i.p.): good anti-hypertensive activity; analgesic effect (in words) [4]: excellent analgesic effect
24 | COC(=O)[C@@H]1Cc2ccccc2CN1C(=O)CNC(=O)[C@@H]1CCC(=O)N1 [compound 24, (L)-Pyr-Gly-(L)-CypOMe] ([pGlu]-Gly-[Tic]-OMe) | bland anti-hypertensive action |  | moderate anti-inflammatory action | 
25 | COC(=O)[C@@H]1Cc2c([nH]c3ccccc23)CN1C(=O)[C@H](CC(C)C)NC(=O)[C@@H]1CCC(=O)N1 [compound 25, (L)-Pyr-(L)-Leu-(S)-CytOMe] | bland anti-hypertensive effect |  |  | analgesic effect (in words) [4]: weak analgesic activity
